This passage reports inhibition results from ChEMBL document CHEMBL5442219.

As usually defined, the inhibition is the drop in the measured response relative to a control, in per cent.

What all share (conditions): Compound concentration 10 µM
Test [1] concerns the target T1, Alpha-1D adrenergic receptor (Homo sapiens) (UniProt P25100).
T1 sequence (whole entry): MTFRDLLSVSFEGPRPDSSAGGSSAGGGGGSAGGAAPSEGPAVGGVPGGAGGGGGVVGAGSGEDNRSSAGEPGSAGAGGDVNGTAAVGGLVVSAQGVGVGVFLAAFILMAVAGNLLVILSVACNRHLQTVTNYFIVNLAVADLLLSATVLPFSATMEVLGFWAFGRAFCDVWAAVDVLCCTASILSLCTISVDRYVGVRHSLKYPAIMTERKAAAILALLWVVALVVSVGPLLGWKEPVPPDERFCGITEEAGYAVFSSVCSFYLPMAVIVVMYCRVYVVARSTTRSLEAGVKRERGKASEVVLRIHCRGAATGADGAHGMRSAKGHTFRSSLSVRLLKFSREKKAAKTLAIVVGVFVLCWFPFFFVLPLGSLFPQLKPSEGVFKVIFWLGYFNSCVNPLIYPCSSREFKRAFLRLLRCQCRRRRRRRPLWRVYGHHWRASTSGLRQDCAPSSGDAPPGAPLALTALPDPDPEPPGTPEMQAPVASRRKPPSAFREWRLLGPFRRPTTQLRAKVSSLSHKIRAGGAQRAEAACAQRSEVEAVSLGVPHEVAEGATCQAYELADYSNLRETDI

The target of test [2] is T2, Alpha-2B adrenergic receptor (Homo sapiens) (UniProt P18089).
T2 sequence (whole entry): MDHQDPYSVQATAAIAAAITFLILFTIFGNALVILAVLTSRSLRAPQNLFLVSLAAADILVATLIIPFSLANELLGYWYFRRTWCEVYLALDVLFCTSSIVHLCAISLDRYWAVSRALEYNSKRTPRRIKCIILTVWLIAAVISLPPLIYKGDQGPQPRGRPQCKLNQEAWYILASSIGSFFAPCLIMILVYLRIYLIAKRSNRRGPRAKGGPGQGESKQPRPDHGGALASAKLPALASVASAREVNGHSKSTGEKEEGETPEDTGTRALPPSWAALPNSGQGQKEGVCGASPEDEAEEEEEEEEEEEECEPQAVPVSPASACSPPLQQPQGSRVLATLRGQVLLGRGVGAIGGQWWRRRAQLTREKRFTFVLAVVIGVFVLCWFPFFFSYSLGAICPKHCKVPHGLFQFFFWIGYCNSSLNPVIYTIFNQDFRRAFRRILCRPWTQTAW

Test [3] deals with Beta-2 adrenergic receptor (Homo sapiens) (UniProt P07550).
Test [4] concerns the target Muscarinic acetylcholine receptor M3 (Homo sapiens) (UniProt P20309).
The target in test [5] is T3, Muscarinic acetylcholine receptor M4 (Homo sapiens) (UniProt P08173).
T3 sequence (whole entry): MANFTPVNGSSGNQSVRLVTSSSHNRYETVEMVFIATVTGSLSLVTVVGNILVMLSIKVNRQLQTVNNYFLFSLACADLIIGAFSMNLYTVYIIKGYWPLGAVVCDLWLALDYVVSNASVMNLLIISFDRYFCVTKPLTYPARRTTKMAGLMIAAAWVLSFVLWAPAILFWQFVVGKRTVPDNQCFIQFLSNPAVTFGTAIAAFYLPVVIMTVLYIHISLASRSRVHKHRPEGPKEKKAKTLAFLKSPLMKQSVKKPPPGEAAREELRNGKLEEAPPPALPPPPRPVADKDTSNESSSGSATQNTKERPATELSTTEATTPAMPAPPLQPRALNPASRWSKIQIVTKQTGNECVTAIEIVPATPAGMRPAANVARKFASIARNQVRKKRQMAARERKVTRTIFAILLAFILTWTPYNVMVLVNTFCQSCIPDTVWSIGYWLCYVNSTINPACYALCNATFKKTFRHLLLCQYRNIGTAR

Test [6] deals with D(3) dopamine receptor (Homo sapiens) (UniProt P35462).
In test [7] the target is T4, D(4) dopamine receptor (Homo sapiens) (UniProt P21917).
T4 sequence (whole entry): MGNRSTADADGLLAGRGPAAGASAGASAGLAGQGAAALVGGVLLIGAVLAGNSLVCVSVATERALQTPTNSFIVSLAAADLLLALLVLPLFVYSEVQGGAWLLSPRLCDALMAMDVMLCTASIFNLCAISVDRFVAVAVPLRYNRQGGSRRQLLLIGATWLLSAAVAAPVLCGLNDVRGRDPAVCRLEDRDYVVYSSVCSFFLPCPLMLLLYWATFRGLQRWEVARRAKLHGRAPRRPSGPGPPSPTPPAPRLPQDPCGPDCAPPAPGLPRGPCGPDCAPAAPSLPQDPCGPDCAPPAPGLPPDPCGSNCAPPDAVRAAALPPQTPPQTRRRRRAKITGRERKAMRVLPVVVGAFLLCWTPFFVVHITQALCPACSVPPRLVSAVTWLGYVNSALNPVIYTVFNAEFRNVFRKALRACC

For test [8], the target named is Histamine H1 receptor (Homo sapiens) (UniProt P35367).
Test [9] has as its target T5, 5-hydroxytryptamine receptor 1A (Homo sapiens) (UniProt P08908).
T5 sequence (whole entry): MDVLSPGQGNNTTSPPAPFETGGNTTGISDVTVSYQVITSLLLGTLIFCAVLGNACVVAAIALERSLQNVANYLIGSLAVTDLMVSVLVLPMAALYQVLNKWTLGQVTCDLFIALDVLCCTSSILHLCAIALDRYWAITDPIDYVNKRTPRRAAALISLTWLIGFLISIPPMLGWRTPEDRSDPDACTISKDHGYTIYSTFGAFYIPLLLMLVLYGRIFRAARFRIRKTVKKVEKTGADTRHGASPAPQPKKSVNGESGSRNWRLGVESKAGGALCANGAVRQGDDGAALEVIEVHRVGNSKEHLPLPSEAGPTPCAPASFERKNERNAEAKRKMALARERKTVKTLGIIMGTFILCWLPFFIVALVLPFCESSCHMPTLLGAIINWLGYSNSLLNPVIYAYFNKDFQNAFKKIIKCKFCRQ

Test [10] has as its target 5-hydroxytryptamine receptor 2B (Homo sapiens) (UniProt P41595).
The target of test [11] is 5-hydroxytryptamine receptor 5A (Homo sapiens) (UniProt P47898).
For test [12], the target named is Sodium-dependent noradrenaline transporter (Homo sapiens) (UniProt P23975).
The target in test [13] is Sodium-dependent dopamine transporter (Homo sapiens) (UniProt Q01959).
In test [14] the target is Histamine H4 receptor (Homo sapiens) (UniProt Q9H3N8).
Histamine H4 receptor (Homo sapiens), sequence (Q9H3N8 whole entry): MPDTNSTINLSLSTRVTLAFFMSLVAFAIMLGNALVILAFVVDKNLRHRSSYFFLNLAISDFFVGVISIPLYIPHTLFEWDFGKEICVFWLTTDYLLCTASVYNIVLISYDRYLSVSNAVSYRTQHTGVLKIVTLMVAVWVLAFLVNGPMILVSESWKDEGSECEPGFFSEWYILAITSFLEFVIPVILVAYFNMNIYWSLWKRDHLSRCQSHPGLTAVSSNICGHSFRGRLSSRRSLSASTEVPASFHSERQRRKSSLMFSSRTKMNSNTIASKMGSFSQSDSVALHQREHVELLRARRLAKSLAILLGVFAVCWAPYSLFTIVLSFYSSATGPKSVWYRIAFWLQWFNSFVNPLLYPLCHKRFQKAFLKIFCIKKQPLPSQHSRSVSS

5-hydroxytryptamine receptor 5A (Homo sapiens), sequence (P47898 whole entry): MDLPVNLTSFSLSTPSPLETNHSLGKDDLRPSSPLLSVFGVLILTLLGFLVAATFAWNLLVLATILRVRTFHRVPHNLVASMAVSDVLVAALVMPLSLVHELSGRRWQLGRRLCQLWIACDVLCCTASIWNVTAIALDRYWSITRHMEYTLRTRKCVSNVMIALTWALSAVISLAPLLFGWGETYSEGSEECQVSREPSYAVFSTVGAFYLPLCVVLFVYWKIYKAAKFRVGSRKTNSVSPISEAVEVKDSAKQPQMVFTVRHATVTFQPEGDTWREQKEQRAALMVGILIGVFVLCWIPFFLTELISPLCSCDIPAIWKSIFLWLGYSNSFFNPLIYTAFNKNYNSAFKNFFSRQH
D(3) dopamine receptor (Homo sapiens), sequence (P35462 whole entry): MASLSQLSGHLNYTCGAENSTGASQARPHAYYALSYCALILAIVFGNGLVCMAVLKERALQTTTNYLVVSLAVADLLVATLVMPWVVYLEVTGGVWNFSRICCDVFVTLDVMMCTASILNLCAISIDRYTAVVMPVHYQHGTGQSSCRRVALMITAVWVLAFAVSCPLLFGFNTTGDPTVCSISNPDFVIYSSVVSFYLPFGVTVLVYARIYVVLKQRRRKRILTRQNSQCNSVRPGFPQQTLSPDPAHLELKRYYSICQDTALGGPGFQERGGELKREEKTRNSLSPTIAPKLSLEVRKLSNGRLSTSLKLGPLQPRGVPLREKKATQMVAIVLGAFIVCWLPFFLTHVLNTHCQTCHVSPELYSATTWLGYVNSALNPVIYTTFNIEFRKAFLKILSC
Sodium-dependent noradrenaline transporter (Homo sapiens), sequence (P23975 whole entry): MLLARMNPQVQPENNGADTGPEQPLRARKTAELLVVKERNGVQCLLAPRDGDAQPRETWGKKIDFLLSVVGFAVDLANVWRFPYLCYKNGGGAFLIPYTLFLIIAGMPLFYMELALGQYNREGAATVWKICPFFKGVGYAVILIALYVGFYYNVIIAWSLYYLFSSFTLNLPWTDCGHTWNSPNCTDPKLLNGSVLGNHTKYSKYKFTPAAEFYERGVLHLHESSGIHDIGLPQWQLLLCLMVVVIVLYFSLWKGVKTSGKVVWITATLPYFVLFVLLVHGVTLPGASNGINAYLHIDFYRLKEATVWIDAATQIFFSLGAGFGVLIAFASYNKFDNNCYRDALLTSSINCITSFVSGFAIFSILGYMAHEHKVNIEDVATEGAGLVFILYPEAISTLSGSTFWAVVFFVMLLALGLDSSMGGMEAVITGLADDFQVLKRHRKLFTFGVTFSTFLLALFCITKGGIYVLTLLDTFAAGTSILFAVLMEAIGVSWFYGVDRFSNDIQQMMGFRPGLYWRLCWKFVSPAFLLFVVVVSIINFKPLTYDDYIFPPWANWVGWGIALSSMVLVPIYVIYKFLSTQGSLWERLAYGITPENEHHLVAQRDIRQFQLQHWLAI
5-hydroxytryptamine receptor 2B (Homo sapiens), sequence (P41595 whole entry): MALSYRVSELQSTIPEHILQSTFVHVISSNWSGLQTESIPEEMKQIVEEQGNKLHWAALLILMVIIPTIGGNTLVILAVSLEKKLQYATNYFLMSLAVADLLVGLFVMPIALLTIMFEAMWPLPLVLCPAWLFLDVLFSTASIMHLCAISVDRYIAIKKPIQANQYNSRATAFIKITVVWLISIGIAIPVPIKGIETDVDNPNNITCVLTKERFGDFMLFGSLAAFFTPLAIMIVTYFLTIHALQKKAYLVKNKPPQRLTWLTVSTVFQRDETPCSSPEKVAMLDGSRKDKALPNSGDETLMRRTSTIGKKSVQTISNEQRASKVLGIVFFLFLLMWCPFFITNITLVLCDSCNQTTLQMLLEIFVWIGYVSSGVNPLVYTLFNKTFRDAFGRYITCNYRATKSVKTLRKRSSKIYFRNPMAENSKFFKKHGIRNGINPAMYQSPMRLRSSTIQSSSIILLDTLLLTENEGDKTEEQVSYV
Muscarinic acetylcholine receptor M3 (Homo sapiens), sequence (P20309 whole entry, looked up): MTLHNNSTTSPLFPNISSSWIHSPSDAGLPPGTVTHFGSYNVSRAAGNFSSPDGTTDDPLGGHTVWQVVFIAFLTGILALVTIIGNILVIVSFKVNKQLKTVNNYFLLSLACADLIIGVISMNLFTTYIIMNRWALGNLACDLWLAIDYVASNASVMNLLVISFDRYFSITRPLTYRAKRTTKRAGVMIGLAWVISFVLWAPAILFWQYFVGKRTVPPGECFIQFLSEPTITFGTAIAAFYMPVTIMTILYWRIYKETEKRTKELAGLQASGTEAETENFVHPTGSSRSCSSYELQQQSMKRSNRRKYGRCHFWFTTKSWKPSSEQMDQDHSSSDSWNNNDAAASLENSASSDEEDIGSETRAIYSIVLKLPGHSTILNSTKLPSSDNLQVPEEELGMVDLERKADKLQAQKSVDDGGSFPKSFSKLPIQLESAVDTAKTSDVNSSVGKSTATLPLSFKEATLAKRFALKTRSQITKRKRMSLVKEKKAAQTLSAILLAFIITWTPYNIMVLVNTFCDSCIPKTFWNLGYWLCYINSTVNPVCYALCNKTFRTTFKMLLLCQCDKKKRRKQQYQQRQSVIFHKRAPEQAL
Sodium-dependent dopamine transporter (Homo sapiens), sequence (Q01959 whole entry): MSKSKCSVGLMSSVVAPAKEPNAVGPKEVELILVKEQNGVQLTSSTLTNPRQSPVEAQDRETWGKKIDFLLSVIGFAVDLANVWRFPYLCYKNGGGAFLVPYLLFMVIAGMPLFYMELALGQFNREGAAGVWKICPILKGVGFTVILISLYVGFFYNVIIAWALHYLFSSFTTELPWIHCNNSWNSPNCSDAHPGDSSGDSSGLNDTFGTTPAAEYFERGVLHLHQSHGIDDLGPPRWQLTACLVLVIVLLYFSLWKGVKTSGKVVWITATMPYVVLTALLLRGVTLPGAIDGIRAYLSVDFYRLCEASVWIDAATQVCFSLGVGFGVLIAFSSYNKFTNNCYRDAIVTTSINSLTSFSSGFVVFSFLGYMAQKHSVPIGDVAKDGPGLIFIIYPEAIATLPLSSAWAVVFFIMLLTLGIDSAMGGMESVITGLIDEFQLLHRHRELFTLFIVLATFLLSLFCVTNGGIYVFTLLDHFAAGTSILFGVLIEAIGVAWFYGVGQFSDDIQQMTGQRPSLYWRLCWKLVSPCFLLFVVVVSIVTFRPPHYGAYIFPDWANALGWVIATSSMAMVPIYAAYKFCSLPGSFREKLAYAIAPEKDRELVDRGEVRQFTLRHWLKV
Histamine H1 receptor (Homo sapiens), sequence (P35367 whole entry): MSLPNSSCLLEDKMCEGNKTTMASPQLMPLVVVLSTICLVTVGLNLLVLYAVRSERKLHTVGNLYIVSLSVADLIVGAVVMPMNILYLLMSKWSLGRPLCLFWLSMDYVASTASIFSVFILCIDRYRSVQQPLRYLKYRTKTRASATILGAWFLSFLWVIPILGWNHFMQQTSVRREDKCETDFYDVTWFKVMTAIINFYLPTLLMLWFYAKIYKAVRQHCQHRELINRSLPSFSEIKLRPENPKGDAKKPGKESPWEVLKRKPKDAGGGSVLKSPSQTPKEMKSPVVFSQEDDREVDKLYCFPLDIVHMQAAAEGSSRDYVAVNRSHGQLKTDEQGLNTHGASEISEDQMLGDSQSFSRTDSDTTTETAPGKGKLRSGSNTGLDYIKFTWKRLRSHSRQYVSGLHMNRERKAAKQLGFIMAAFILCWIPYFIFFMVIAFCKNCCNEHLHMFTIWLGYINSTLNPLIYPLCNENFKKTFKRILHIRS
Beta-2 adrenergic receptor (Homo sapiens), sequence (P07550 whole entry, looked up): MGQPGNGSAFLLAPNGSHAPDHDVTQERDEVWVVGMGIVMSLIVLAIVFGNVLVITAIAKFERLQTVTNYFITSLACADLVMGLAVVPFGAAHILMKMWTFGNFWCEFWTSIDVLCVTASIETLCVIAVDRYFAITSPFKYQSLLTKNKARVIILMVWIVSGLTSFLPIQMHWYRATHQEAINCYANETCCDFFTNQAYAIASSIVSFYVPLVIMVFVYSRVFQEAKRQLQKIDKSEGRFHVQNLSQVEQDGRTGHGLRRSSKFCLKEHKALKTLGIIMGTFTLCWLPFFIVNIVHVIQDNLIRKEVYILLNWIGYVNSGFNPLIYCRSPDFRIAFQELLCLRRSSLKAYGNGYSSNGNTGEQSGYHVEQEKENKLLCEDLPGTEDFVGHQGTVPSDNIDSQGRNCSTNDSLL

Turning to `Cc1nn(C)c(C)c1-c1cccc2c1CC[C@H](N(C)C)C2`, the inhibition in test [1] is 2.35%; in test [2], 92.2%; in test [3], 20.2%; in test [4], 44.1%; in test [5], 5.06%; in test [6], -2.85%. Moreover, the inhibition in test [7] was 24.5%; in test [8], 9.36%; in [9], 51.8%; in test [10], 84.9%; in test [11] it was 87.1%; in [12], -2.38%. Further, in [13], the inhibition was 37.9%.

Turning to `OC[C@H]1O[C@@H](n2cnc3c(NC4CCCC4)ncnc32)[C@H](O)[C@@H]1O`, the inhibition is -2.06% in [1]; 11% in test [2]; -3.65% in test [3]; -0.28% in test [4]; 3.39% in [5]; 7.26% in [6]. Further, the inhibition was 34% in test [7]; 2.72% in [8]; -5.74% in [9]; 38.5% in [10]; -5.9% in test [11]; 28.3% in [12]. Besides, in test [13], the inhibition is 36.9%.

On to `O=C(O)c1cc(-c2ccc(C3CCNCC3)cc2)c2ccc(-c3ccc(C(F)(F)F)cc3)cc2c1`, for which the inhibition in [1] was 16.7%; in test [2] it was 40.4%; in test [3] it was -2.41%; in test [4], 1.23%; in test [5], -1.1%; in [6] it was 28.9%. For the same compound, the inhibition was 42.8% in test [8]; -8.87% in test [14]; 51.4% in [9]; 26.6% in [10]; 69% in [11]; 88% in test [12]. For the same compound, the inhibition in [13] is 82.5%.

In the case of `Cc1nc(-c2ccc(C(F)(F)F)cc2)sc1COc1ccc([C@H](CC(=O)O)c2ccon2)cc1`, the inhibition in test [1] was -8.39%; in test [2], -6.48%; in test [3], 7.87%; in test [4] it was 2.18%; in test [5], 4.4%; in test [6] it was 42.1%. Further, the inhibition in test [14] was -1.65%; in test [10], 0.53%; in test [11], 26.8%; in test [12], 14.3%; in [13] it was 51.1%.

Take `CNc1nc(NCc2ccc(NS(C)(=O)=O)cc2Cl)cc(-c2ccccn2)n1`: the inhibition in test [1] was 12.4%; in test [2], 24.4%; in test [4] it was -1.96%; in test [5], 9.44%; in test [6] it was 56.5%; in test [7] it was 2.1%. Further, the inhibition in test [8] was 12%; in [14] it was 0.58%; in test [9], 0.99%; in [10], 66.5%; in [11], 75.4%; in test [12], 24%. Moreover, in test [13], the inhibition is 47.6%.

Consider `Cc1ccc2c(c1)c1c(n2CCc2ccc(C)nc2)CCN(C)C1`, for which the inhibition in test [1] is 84.6%; in test [2], 91.7%; in test [3], -9.1%; in test [4] it was 18%; in test [5], 5.78%; in test [6], 72.3%. The inhibition in [7] is 52.7%; in [8] it was 95.1%; in [9], 39.1%; in test [10], 76.9%; in [11], 94.8%; in test [12], -7.44%.

As to `O=c1ccn([C@@H]2O[C@H](COP(=O)(O)OP(=O)(O)OP(=O)(O)O)[C@@H](O)[C@H]2O)c(=O)[nH]1`, the inhibition in test [1] was 11.6%; in test [2] it was 0.09%; in [4] it was 5.24%; in [5], -4.92%; in test [6] it was 22.3%; in test [7] it was 53.3%. Moreover, the inhibition in [8] is -0.29%; in test [14], 4.53%; in [9] it was 26.3%; in test [10], -4.24%; in test [11], 16.9%; in test [12], 11%. In addition, in [13], the inhibition was -7.04%.

Consider `COc1ccc2cc(S(=O)(=O)N[C@H](CC(=O)N[C@H](Cc3ccc(CN4[C@H](C)CCC[C@@H]4C)cc3)C(=O)N(C)C(C)C)c3ccc4c(c3)OCO4)ccc2c1`, for which the inhibition in test [1] is 15.9%; in [2] it was 33.5%; in test [4], 14.5%; in [5], 46.7%; in test [6] it was 26%; in test [7], 33.2%. Besides, the inhibition in test [8] is 33.1%; in [14], 9.34%; in [9], -7.48%; in [10] it was 27.5%; in [11], 20.3%; in test [12] it was 25.7%. Also, the inhibition in test [13] was 36.8%.

On to `Cc1nc(C#Cc2ccnc(Cl)c2)c(C)n1-c1ccc(OC(F)(F)F)cc1`, for which the inhibition is 20.7% in test [1]; 67.9% in test [2]; -6.52% in [4]; 15.4% in test [5]; 13.1% in [6]; -0.11% in test [7]. Further, the inhibition was -4.73% in test [8]; -9.98% in test [14]; 10.3% in test [9]; 19.6% in [10]; 30% in [11]; 1.45% in test [12]. In addition, the inhibition in [13] is 8%.
